# According to patent publication US20240209038A1, “TARGETING PIEZO1 TO TREAT INHERITED AND AGE-RELATED MACULAR DEGENERATIONS” (priority 2021, published 2024):
# No end group written: not given here.
# Assays:
# primary porcine RPE = assay: Live imaging of calcium influx (Fluo-4 NW) in polarized primary RPE; type: cell-based, pig; settings: for cytosolic and nuclear calcium at baseline: RPE treated with stressor causing cholesterol and ceramide accumulation; for intracellular calcium spikes in RPE cultured on silica beads: RPE cultured on silica beads to simulate drusen
# Source text: (§1) Primary adult RPE cultures. Polarized RPE monolayers from pig eyes were generated as described (Kaur et al., 2018; Tan et al., 2016; Toops et al., 2015; Toops et al., 2014). RPE on collagen-coated transwell filters form fully polarized monolayers within two weeks, develop trans-epithelial electrical resistances (TER) of ≥400 ohm·cm^2 and express RPE differentiation markers such as apical Na^+,K^+-ATPase and intracellular RPE65 (Toops et al., 2014).
# (§2) Intrinsic stressors to activate Piezo1. RPE monolayers were treated with the bisretinoid A2E to increase cholesterol and ceramide (Kaur et al., 2018; La Cunza et al., 2020; Tan et al., 2016; Toops et al., 2015), which act as intrinsic stressors that activate Piezo1.
# Extrinsic stressors to activate Piezo1. To simulate drusen-mediated mechanical stress, cells were cultured on collagen-coated filters layered with 500 nm diameter monodisperse silica microspheres (Cospheric SiO2MS-2.0 0.507 μm) at a density of 40 beads/cm^2 in a collagen (10 μg/cm^2) matrix.
# Drugs that modulate Piezo1 activity (Xiao, 2020). Yoda1 is a small molecule gating modifier that specifically potentiates Piezo1 mechanosensitivity and slows the inactivation kinetics with EC50 of ˜10-20 μM. It interacts with the […] domains of Piezo1 and thereby increases channel opening time. […] We treated primary RPE cultures for 6 hours with 10 μM Yoda1 (Sigma SML1558) for immunostaining/immunoblotting and biochemical experiments, or with 25 μM for 1-5 minutes for live imaging experiments. RPE cultures were treated with 500 nM GsMTx-4 (Tocris 4912100U) for 6 h.
# High-speed live-cell imaging. The Nikon CSU-X1 dual camera platform spinning disk confocal microscopy system will be used for live imaging of primary RPE cultures and mouse RPE flatmounts. Images will be analyzed using Imaris (Bitplane) (Kaur et al., 2018; Tan et al., 2016; Toops et al., 2015). If necessary, Delta Vision OMX-SR (GE Healthcare Life Sciences) with 3D structured illumination microscopy (3D-SIM) and ring-TIRF capabilities at UCSF's Nikon Imaging Center will be used for super-resolution imaging.
# Live imaging of calcium influx. For live imaging of calcium influx, primary porcine RPE grown on Transwell filters±A2E or grown on silica beads, and mouse RPE flatmounts were loaded with Fluo-4 NW (Invitrogen, F36206) for 30 min according to manufacturer's protocol. Excised Transwell filters or mouse RPE flatmounts were mounted onto a Warner chamber in the presence of Fluorobrite DMEM (Gibco, A1896701) supplemented with 1% FBS (ATCC, 30-2020), 1% NEAA (Corning, 25025CI), and 4 mM L-glutamine (Gibco, 25030081) and imaged using Nikon spinning disk confocal microscope with 60× oil immersion objective (1.49 NA). To increase or inhibit Piezo1 channel activity, Yoda1 (25 μM) or GsMTx-4 (5 μM) was added prior to live imaging. Apart from these drugs, preincubation with BAPTA-AM (Thermofisher) was used to determine the Ca^2+-dependence of nuclear and cytosolic signals.
# RPE [1] = settings: cited from earlier work; for cholesterol and ceramide accumulation in RPE: Tan et al., 2016
# RPE [2] = assay: Complement-mediated mitochondrial fragmentation in RPE (mito-RFP live imaging, A2E + 10% NHS); type: cell-based; settings: A2E-treated RPE exposed to 10% NHS; Simvastatin 5 μM 16 h, T0901317 1 μM 16 h, desipramine 10 μM 3 h
# Description: (§3) FIGS. 7A-7B. 7A, 3D reconstruction from live imaging of mitochondrial volumes in mock transfected RPE transduced with mito-RFP, treated with A2E and exposed to 10% NHS to induce complement attack. RPE were treated with Simvastatin (5 μM, 16 h), T0901317 (1 μM, 16 h) or desipramine (10 μM, 3 h) prior to imaging. […] 7B, Quantification of fragmented mitochondria per cell from images in A. Mean±SEM, ***, p<0.0001, t-test. C, H3K9me3 (red) immunostaining in retinal cryosections from Abca4−/− mice treated with vehicle or […] desipramine i.p.
# RPE [3] = assay: Cholesterol and ceramide accumulation in the RPE; type: cell-based; settings: FIGS. 3A and 3B
# Description: as §2
# primary polarized RPE [4] = assay: H3K9me3 immunostaining in primary polarized RPE; type: cell-based, pig; settings: prolonged piezo1 activation
# Description: (§4) FIGS. 4A-4E. 4A, 3D reconstructions; 4B, quantitation of mitochondrial volumes from Tom20 staining in primary RPE cultures treated or not with Yoda1 and GsMTx-4. Warmer colors indicate healthy mitochondria and cooler colors indicate fragmented mitochondria. Mean±SEM; *** p<0.0001, unpaired t-test. 4C, H3K9me3 (red; merge with DAPI appears pink) immunostaining in primary RPE cultured on collagen or collagen with silica beads±GSMTx-4 (500 nM, 3 h). 4D, Actin labeling in live primary RPE cultures. Arrow heads: actin “knots” that indicate areas of actin polymerization prior to actomyosin contraction and cell extrusion. 4E, quantitation of actin staining intensity in primary RPE cultured on collagen or collagen with beads and treated with Yoda1 and/or GsMTx-4. Mean±SEM, *, p<0.05; *** p<0.001, unpaired t-test.
# as §1
# (§5) Drugs that modulate Piezo1 activity (Xiao, 2020). […]
# primary polarized RPE [5] = assay: Mitochondrial volumes/fragmentation from Tom20 staining in primary RPE cultures; type: cell-based, pig
# Description: as §4, §1, §5
# Piezo2 = settings: specificity for Piezo1; cited from earlier work
# Piezo1 [6] = settings: Xiao, 2020; read-out: EC50, potentiates Piezo1 mechanosensitivity and slows the inactivation kinetics; cited from earlier work
# [7] = test system: Abca4−/− mice RPE flatmounts; assay: Live imaging of calcium influx (Fluo-4 NW) in mouse RPE flatmounts; type: cell-based; settings: preliminary live imaging
# Source text: (§6) Mice. There are no mouse models that adequately reproduce AMD phenotypes. We therefore used models that best recapitulate the phenotype of interest. We used pigmented wild-type (129S1/SvlmJ) and Abca4^−/− mice (Jackson Labs) because we and others have reported that Abca4^−/− mice RPE show an age-dependent accumulation of cholesterol and ceramide (Kaur et al., 2018; Lenis et al., 2017; Tan et al., 2016; Toops et al., 2015), which are known to prolong Piezo1 activation (Ridone et al., 2020, Shi et al., 2020).
# (§7) Live imaging of mouse RPE flatmounts. Tissue from freshly harvested eyes will be mounted onto a Warner chamber in the presence of Fluorobrite DMEM (Gibco, A1896701) supplemented with 1% FBS (ATCC, 30-2020), 1% NEAA (Corning, 25025CI), and 4 mM L-glutamine (Gibco, 25030081) and imaged immediately using a 60× oil immersion objective (1.49 NA).
# Live imaging of calcium influx. For live imaging of calcium influx, primary porcine RPE grown on Transwell filters±A2E or grown on silica beads, and mouse RPE flatmounts were loaded with Fluo-4 NW (Invitrogen, F36206) for 30 min according to manufacturer's protocol. […]
# [8] = test system: polarized primary RPE cultures; assay: Live imaging of actin dynamics (SiR-actin) in polarized primary RPE cultures; type: cell-based, pig
# Description: as §4
# Primary adult RPE cultures. Polarized RPE monolayers from pig eyes were generated as described (Kaur et al., 2018; Tan et al., 2016; Toops et al., 2015; Toops et al., 2014). RPE on collagen-coated transwell filters form fully polarized monolayers within two weeks, develop trans-epithelial electrical resistances (TER) of ≥400 ohm·cm^2 and express RPE differentiation markers such as apical Na^+,K^+-ATPase and intracellular RPE65 (Toops et al., 2014). […]
# [9] = test system: Abca4−/− mice RPE flatmounts; assay: Live imaging of actin (SiR-actin) in mouse RPE flatmounts; type: cell-based; settings: freshly isolated Abca4−/− mice RPE flatmounts compared to age-matched wild types
# Source text: FIGS. 5A-5C. Validation of the Abca4−/− mouse model to study the role of Piezo1 in RPE dysfunction. 5A, H3K9me3 (red) immunostaining in 8-month-old wild type and Abca4−/− mouse RPE flatmounts. 5B, reconstruction of mitochondrial volumes from Tom20 staining in wild type and Abca4−/− mouse RPE flatmounts. Warmer colors indicate healthy mitochondria and cooler colors indicate fragmented mitochondria. 5C, Live imaging of mouse RPE flatmounts with FluoNW (green) and SiR-actin (red).
# as §7
# Live imaging of actin dynamics was performed using SiR-actin (1 μM, 30 min) and FLIPPER-TR plasma membrane probe in RPE with A2E or grown on silica beads±Yoda1±GsMTx-4
# Abca4−/− mice = assay: Nuclear H3K9me3 in RPE of Abca4−/− mice after drug administration; type: in vivo, mouse; settings: 10 mg/kg i.p., three times/week for four weeks, compared to vehicle-treated mice
# Description: as §3, §6
# Antibodies. All antibodies used were validated for specificity using the relevant IgG controls, cell lysates lacking the antigen, or by blocking peptides. […]
# Piezo1 [10] = settings: Suchyna, et al. Nature 430:235-240, 2004; cited from earlier work
# Piezo1 [11] = target: Piezo1 (Mus musculus, UniProt E2JF22); settings: whole cell recordings as described in Bae et al., Biochemistry 50:6295-300, 2011; range printed with mixed units (nM to μM); read-out: Kd, reversible block of Piezo1 activation; cited from earlier work
# Piezo1 (Mus musculus, UniProt E2JF22), sequence (E2JF22 whole entry): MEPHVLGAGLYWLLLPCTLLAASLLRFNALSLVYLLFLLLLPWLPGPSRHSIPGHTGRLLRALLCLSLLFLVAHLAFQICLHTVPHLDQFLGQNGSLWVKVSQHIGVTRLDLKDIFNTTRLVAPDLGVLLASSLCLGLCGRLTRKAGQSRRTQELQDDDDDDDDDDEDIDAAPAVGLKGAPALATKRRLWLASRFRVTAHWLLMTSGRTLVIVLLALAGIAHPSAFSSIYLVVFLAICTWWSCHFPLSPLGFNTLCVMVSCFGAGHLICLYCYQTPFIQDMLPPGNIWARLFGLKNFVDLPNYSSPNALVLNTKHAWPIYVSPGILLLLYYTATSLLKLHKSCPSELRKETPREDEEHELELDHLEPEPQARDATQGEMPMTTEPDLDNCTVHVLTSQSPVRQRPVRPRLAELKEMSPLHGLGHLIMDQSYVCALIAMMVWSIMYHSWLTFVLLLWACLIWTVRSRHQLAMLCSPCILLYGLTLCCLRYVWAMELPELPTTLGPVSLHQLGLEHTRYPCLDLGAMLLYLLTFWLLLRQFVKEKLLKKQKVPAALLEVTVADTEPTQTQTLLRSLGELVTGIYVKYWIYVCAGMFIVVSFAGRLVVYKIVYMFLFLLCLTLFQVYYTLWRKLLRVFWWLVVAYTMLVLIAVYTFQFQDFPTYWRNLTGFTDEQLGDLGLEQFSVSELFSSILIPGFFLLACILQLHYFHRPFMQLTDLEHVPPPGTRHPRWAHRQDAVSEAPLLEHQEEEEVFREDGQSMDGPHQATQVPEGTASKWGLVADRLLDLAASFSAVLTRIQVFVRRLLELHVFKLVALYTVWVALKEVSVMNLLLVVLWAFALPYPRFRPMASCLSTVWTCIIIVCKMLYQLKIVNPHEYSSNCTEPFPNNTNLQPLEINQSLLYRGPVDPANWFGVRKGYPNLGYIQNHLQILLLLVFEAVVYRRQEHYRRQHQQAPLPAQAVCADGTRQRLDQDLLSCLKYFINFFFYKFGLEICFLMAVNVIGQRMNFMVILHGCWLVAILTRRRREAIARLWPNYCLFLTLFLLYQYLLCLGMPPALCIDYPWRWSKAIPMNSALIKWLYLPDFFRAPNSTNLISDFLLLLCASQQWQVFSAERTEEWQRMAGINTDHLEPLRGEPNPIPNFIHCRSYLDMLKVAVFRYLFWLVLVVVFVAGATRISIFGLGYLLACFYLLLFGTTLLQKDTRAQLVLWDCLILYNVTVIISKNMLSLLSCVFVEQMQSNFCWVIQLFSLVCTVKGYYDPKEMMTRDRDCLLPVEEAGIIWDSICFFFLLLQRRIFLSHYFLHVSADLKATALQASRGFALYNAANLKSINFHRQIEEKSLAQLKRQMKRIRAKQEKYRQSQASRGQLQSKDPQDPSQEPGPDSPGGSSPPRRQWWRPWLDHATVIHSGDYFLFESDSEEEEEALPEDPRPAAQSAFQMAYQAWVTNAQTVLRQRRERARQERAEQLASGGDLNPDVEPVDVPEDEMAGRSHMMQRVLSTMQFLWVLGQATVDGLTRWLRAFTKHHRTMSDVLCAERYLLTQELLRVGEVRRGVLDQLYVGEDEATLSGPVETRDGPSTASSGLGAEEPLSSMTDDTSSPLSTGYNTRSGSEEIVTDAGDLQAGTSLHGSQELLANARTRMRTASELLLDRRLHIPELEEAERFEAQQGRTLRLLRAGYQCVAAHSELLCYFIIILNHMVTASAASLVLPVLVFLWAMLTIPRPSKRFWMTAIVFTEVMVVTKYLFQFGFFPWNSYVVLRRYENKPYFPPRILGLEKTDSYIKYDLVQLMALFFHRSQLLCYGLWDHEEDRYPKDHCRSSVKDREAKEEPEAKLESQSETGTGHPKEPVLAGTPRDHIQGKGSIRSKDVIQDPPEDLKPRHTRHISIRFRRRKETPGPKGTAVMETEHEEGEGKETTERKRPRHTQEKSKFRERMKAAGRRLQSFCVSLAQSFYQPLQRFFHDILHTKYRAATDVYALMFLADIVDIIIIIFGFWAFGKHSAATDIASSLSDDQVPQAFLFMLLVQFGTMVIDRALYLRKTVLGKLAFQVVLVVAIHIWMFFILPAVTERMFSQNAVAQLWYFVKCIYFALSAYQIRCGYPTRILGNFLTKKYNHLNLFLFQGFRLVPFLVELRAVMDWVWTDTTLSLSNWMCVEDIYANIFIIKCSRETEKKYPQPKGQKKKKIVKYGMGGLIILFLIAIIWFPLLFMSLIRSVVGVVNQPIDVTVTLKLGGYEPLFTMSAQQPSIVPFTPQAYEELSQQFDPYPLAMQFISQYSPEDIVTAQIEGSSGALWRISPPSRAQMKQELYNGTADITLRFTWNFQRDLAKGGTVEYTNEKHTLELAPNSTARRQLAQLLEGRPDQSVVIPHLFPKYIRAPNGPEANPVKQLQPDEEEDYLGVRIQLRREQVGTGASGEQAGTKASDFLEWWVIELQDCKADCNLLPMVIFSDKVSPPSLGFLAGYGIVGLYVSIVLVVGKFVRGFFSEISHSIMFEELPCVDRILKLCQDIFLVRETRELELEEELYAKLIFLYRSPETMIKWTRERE
# Piezo1 [12] = target: T1, Piezo1 (Homo sapiens, UniProt Q92508); assay: Piezo1 currents in whole cell-clamped primary RPE (patch-clamp/high-speed pressure clamp); type: cell-based; settings: depletion of membrane cholesterol
# T1 construct: Dissociated RPE cells from human donors were whole cell-clamped; endogenous in cells; host or cells: dissociated RPE cells from human donors
# T1 sequence (Q92508 whole entry): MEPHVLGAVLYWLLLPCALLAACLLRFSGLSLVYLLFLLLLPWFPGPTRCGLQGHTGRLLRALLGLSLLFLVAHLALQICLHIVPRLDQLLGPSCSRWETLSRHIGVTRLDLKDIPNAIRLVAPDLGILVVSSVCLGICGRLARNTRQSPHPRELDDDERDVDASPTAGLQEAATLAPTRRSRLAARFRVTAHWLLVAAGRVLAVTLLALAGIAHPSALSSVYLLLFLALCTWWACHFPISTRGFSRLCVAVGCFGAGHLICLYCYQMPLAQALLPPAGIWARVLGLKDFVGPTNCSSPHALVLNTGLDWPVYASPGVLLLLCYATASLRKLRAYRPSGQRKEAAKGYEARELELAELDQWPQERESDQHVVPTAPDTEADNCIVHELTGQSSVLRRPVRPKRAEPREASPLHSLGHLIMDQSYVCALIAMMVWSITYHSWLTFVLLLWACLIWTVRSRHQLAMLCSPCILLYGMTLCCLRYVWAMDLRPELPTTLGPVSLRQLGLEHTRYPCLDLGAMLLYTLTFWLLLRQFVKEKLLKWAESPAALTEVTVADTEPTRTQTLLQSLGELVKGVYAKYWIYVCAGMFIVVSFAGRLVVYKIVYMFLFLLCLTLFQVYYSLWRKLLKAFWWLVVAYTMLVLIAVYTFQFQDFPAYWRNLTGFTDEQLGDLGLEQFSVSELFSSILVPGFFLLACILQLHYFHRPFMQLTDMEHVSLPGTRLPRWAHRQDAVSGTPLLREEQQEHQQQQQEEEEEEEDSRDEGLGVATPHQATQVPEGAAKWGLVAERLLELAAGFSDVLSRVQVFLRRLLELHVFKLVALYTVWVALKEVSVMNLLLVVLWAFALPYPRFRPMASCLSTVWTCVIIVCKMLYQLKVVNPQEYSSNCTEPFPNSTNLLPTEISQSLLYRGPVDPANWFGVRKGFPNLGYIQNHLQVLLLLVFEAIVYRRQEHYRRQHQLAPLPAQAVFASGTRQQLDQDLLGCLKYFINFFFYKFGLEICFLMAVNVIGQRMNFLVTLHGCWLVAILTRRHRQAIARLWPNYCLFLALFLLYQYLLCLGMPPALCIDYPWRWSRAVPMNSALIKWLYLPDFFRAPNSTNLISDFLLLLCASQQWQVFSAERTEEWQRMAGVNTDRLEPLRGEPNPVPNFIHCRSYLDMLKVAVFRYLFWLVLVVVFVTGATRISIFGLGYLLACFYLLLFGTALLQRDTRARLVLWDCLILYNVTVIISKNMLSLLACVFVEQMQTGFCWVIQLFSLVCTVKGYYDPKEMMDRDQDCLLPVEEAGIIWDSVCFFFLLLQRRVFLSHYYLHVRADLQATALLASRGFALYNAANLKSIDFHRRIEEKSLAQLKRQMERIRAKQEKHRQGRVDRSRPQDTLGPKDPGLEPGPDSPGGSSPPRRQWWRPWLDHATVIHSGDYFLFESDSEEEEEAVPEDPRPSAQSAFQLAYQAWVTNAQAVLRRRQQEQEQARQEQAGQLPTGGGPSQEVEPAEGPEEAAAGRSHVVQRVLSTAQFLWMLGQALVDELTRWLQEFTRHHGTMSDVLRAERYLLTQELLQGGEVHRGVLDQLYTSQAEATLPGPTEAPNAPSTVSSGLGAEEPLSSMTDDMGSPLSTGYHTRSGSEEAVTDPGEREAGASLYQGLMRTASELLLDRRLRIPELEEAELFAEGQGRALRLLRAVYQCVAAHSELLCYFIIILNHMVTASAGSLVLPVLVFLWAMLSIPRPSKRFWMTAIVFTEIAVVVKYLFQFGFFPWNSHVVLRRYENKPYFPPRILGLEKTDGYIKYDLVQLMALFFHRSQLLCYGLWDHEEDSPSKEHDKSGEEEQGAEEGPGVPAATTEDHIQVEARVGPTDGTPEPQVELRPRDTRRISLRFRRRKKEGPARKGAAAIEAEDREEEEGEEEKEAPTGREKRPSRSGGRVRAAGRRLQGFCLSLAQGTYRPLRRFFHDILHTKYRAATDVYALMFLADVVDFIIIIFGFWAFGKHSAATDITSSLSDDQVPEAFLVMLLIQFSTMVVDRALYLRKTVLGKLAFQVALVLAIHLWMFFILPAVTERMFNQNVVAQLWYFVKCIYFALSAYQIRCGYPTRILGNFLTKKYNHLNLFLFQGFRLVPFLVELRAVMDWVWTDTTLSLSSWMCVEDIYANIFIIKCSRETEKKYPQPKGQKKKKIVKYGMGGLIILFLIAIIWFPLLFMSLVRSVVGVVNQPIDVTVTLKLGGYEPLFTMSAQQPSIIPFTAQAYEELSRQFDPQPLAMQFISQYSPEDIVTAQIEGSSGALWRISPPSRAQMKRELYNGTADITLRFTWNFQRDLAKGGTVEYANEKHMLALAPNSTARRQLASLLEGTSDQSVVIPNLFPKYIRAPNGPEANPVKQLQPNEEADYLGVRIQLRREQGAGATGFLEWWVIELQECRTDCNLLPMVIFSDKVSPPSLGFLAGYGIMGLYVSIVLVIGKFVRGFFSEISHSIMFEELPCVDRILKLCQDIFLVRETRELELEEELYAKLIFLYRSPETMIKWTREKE
# Source text: FIGS. 3A-3D. Cholesterol and ceramide modulate Piezo1 activation in the RPE. 3A, Stills (at 130 sec and 300 sec) from Fluo4NW live imaging (green); 3B, quantification. In the results provided in FIGS. 3A and 3B, U18 increased cholesterol and ceramide. Mean±SEM, ** p<0.005, unpaired t-test. 3C, Representative traces of whole-cell currents in primary RPE recorded in a typical patch-clamp/HSPC experiment (40 mV holding potential, 25 mm Hg pressure step for 500 mSec). Black trace—control cells; red trace—RPE treated with b-cyclodextrin to deplete membrane cholesterol. 3D, Quantification of results in C. Mean±SEM, n=4 cells.
# Electrophysiology. Dissociated RPE cells from human donors were whole cell-clamped. Steps of positive pressure (2-30 mm Hg) were applied through the patch pipette using high-speed pressure clamp (ALA Instruments) or the cells stimulated with msec indentations of a blunt pipette tip (Physik Instrumente) to evoke the mechanosensitive current. The Piezo1-dependent current was confirmed using GsMTx-4 (Lapajne et al., 2020).
# [13] = in vitro and in vivo (Kaur et al., 2018; Tan et al., 2016; Toops et al., 2015)
compound,measurement,setting,value
CC1=C(/C=C/C(C)=C/C=C/C(C)=C/c2cc(/C=C/C=C(C)/C=C/C3=C(C)CCCC3(C)C)cc[n+]2CCO)C(C)(C)CCC1 [A2E],cytosolic and nuclear calcium at baseline,primary porcine RPE,prolonged cytosolic and nuclear calcium even at baseline
same,cholesterol and ceramide accumulation in RPE,RPE [1],cause cholesterol and ceramide accumulation
O=S(=O)(c1ccccc1)N(CC(F)(F)F)c1ccc(C(O)(C(F)(F)F)C(F)(F)F)cc1 [T0901317],lipofuscin-induced cholesterol accumulation in the RPE,RPE [1]; [13],decreased
same,complement-mediated mitochondrial fragmentation in RPE,RPE [2],protect
CCN(CC)CCO[C@H]1CC[C@@]2(C)C(=CC[C@@H]3[C@@H]2CC[C@]2(C)C(=O)CC[C@@H]32)C1 [U18666A],cholesterol and ceramide in RPE,RPE [3],increased
same,cytosolic and nuclear calcium at baseline,primary porcine RPE,prolonged cytosolic and nuclear calcium even at baseline
same,calcium levels after Yoda1 treatment,"primary porcine RPE; RPE+U18 versus control RPE, where they returned to baseline within minutes",remained high in all cellular compartments
same,cholesterol and ceramide accumulation in RPE,RPE [1],cause cholesterol and ceramide accumulation
Clc1cccc(Cl)c1CSc1nnc(-c2cnccn2)s1 [Yoda1],nuclear H3K9me3,primary polarized RPE [4],loss of nuclear H3K9me3
same,mitochondrial fragmentation,primary polarized RPE [5],mitochondrial fragmentation
same,calcium influx in the RPE,"primary porcine RPE; 25 μM, 1 min, RPE on collagen, live imaging",induces a rapid nuclear calcium influx within seconds
same,intracellular calcium spikes in RPE cultured on silica beads,primary porcine RPE,further potentiated
same,activation of Piezo2,Piezo2,does not activate Piezo2
same,EC50,Piezo1 [6],10 to 20 µM
same,calcium influx in freshly isolated RPE flatmounts,[7],increased calcium influx
same,actin accumulation at cell-cell junctions,[8],caused rapid actin accumulation at cell-cell junctions
same,actin intensity in RPE flatmounts,[9],increased actin intensity
CNCCCN1c2ccccc2CCc2ccccc21 [desipramine],nuclear H3K9me3 in the RPE,Abca4−/− mice,restored nuclear H3K9me3
same,lipofuscin-induced ceramide accumulation in the RPE,RPE [1]; [13],decreased
same,complement-mediated mitochondrial fragmentation in RPE,RPE [2],protect
"GsMTx4-L: L enantiomeric form of GsMTx4 (GCLEFWWKCNPNDDKCCRPKLKCSKLFKLCNFSF; ends and bridges not checked; cysteine pairing not given here; UniProt Q7YT39 47-80, looked up)","effectiveness at blocking Piezo1 activation, L- versus D-enantiomer",Piezo1 [10],equally effective
GsMTx-4,mitochondrial fragmentation,primary polarized RPE [5],protected RPE mitochondria
same,intracellular calcium spikes in RPE cultured on silica beads,primary porcine RPE,decreased
same,actin accumulation at cell-cell junctions,[8],prevented
same,Kd,Piezo1 [11],155 to 2000 nM
cyclodextrin,peak current amplitudes of Piezo1 currents,Piezo1 [12],drastically decreased
